Publication PMC12211128, “Safety, tolerability, pharmacokinetic and pharmacodynamic effects of the muscarinic M1 positive allosteric modulator VU0467319 for Alzheimer’s disease: a single ascending-dose study in healthy participants” (Alzheimer's Research & Therapy, 2025)
“Also recorded” adds a separate entry of the source.

Experiments:
M1 mAChR = conditions: cited from earlier work
healthy participants [1] = test: Clinical laboratory parameters; type: in vivo, human; conditions: food effect study, 120 mg; 72 h post-dose, closer to normal by 144 h
Experimental: Safety and tolerability were assessed throughout the study via treatment emergent adverse event (TEAE) monitoring, vital signs (blood pressure, pulse rate, respiration rate, oral temperature), physical examinations, 12-lead ECGs, and clinical laboratory parameters including complete blood count (CBC), coagulation, hematology, clinical chemistry assessments, and urinalysis. Safety laboratory tests were drawn at pre-dose and at 5, 24, 36 and 144-hours post-dose for 60–400 mg Cohorts; and at 24, 48, 72 and 144-hours post-dose for the 600 mg and Food Effect Cohort. ECG assessments were conducted at pre-dose and at 1, 2, 3, 5, 9, 24, 36 and 144-hours post-dose for 60–400 mg Cohorts; and at 2, 3, 5, 9, 24, 36, 72 and 144-hours post-dose for the 600 mg and Food Effect Cohort. All adverse events (AEs) were assessed by the investigator for severity and relationship to study medication or study procedures.

healthy participants [2] = test: Auditory oddball ERP task; type: in vivo, human; conditions: for Auditory oddball P300 amplitude, targets vs standards, effect size d: post-dose session; for Mean amplitude over the parietal cortex, Auditory Oddball, Standard trials / Mean amplitude over the parietal cortex, Auditory Oddball, Target trials: mean (SD)
Experimental: Following the cognitive battery, an electrophysiology recording was set up. Visual and auditory ERPs were recorded using a 128-channel Geodesic sensor net (EGI, Inc., Eugene, OR; [37, 38]). The electrophysiological recording was sampled at 250 Hz with filters set at 0.1–100 Hz. During data collection, all electrodes were referenced to vertex (Cz). The recording session lasted approximately 30 min.
Auditory and visual oddball tasks were performed to assess attention in auditory and visual modalities. In the auditory task, a pair of two pure tones (single formant) at 1000 and 1500 Hz were the stimuli. In the visual task, the stimuli were a pair of letters (X & O). The assignment of stimuli to standard and target conditions (70% & 30% of the trials respectively), was counterbalanced across participants. Each participant was asked to press a different button using their preferred hand upon presentation of the standard and the target stimulus. On average, auditory and visual tasks lasted 6–7 min each.
ERP processing and Analysis: Single-trial ERPs were derived by extracting a 100-ms pre-stimulus baseline and a 900 ms post-stimulus interval. The trials were screened for ocular and motor artifacts using automated procedures with standard threshold settings (NetStation 4.4, EGI, Inc) and verified using manual review. Data for electrodes characterized by consistent artifacts were replaced using the spherical spline interpolation algorithm. If more than 15 electrodes within a trial were noisy, the entire trial was discarded. Remaining artifact-free trials were averaged separately for each condition (standard vs. oddball; novel vs. repeated images), re-referenced to an average reference, and baseline corrected. For individual participant’s data to be included in the analysis, each condition average had to have a minimum of 10 artifact-free trials.
Statistical analysis focused on a priori selected electrode clusters corresponding to frontal, central, and parietal midline locations (Fz, Cz, Pz in 10–20 notation), confirmed using spatial principal components analysis. Mean amplitudes were calculated within 250–400 ms (frontal P3a), 300–500 ms (parietal P300), and 500–800 ms (parietal P600) temporal windows. These a-priori selected windows were confirmed using temporal principal components analysis.
Analyses for the auditory and visual oddball ERPs focused on the parietal (P300) and frontal (P3a) responses to standard and target stimuli. Differences in the amplitude, latency, and scalp topography of the responses were examined. […] For the incidental memory paradigm, differences in the mean amplitude of the parietal P300/P600 responses to repeated vs. novel presentations. The amplitude of the parietal P300/P600 waveform measures stimulus recognition. A larger positive amplitude for repeated compared to novel images indicates spontaneous formation of a memory trace.
Auditory and visual oddball tasks were performed to assess attention in auditory and visual modalities (Comerchero & Polich, 1999; Polich, 2007). In the auditory task, a pair of two pure tones (single formant) at 1000 and 1500 Hz were the stimuli. Tones were equated in duration (300 ms) and rise/decay times. Tones were presented at 75 dB SPL (measured at the ear) through a speaker positioned 1 meter in front of the participant. In the visual task, the stimuli were a pair of letters (X & O). All stimuli were presented in random order for 500 ms in the center of a computer monitor positioned 1 meter in front of the participant. For both auditory and visual tasks, 200 trials were presented with the inter-stimulus interval varying randomly between 1000-1300 ms to prevent habituation to stimulus onset. The assignment of stimuli to standard and target conditions (70% & 30% of the trials respectively), was counterbalanced across participants. […]

[3] = VU319 120 mg, fasting, post-drug session, n = 9
[4] = VU319 120 mg, fasting, pre-drug session, n = 9
[5] = VU319 120 mg, fed, post-drug session, n = 9
[6] = VU319 120 mg, fed, pre-drug session, n = 9

SMILES: Cn1cc2c(-c3cc(F)c(CN4Cc5ncccc5C4=O)c(F)c3)cccc2n1 [VU319]
- agonist properties at M1 (M1 mAChR): devoid of agonist properties; also recorded: lack of direct orthosteric agonism of M1 receptors
- ALT and AST levels (healthy participants [1]): moderate increase in ALT and AST levels reported by one participant
- Auditory oddball parietal amplitude, target vs standard, post- vs pre-dose, effect size d (healthy participants [2]; 60 mg, p = 0.002): 1.32
- Auditory oddball parietal amplitude, target vs standard, post- vs pre-dose, effect size d (healthy participants [2]; 120 mg, SAD, p = 0.18): 0.64
- Auditory oddball P300 amplitude, targets vs standards, effect size d (healthy participants [2]; 120 mg, fasted, p = 0.033): 0.8
- Auditory oddball P300 amplitude, targets vs standards, effect size d (healthy participants [2]; 120 mg, fed, p = 0.25): 0.85
- Mean amplitude over the parietal cortex, Auditory Oddball, Standard trials (healthy participants [2]; SAD study, 60 mg, Post-Drug): 1.31 (1.02) µV
- Mean amplitude over the parietal cortex, Auditory Oddball, Target trials (healthy participants [2]; SAD study, 60 mg, Post-Drug): 3.69 (1.83) µV
- Mean amplitude over the parietal cortex, Auditory Oddball, Standard trials (healthy participants [2]; SAD study, 60 mg, Pre-Drug): 1.23 (0.96) µV
- Mean amplitude over the parietal cortex, Auditory Oddball, Target trials (healthy participants [2]; SAD study, 60 mg, Pre-Drug): 2.0 (1.32) µV
- Mean amplitude over the parietal cortex, Auditory Oddball, Standard trials (healthy participants [2]; SAD study, 120 mg, Post-Drug): 0.85 (1.41) µV
- Mean amplitude over the parietal cortex, Auditory Oddball, Target trials (healthy participants [2]; SAD study, 120 mg, Post-Drug): 3.18 (1.24) µV
- Mean amplitude over the parietal cortex, Auditory Oddball, Standard trials (healthy participants [2]; SAD study, 120 mg, Pre-Drug): 1.83 (1.04) µV
- Mean amplitude over the parietal cortex, Auditory Oddball, Target trials (healthy participants [2]; SAD study, 120 mg, Pre-Drug): 3.23 (1.85) µV
- Mean amplitude over the parietal cortex, Auditory Oddball, Standard trials (healthy participants [2]; SAD study, 240 mg, Post-Drug): 1.04 (1.54) µV
- Mean amplitude over the parietal cortex, Auditory Oddball, Target trials (healthy participants [2]; SAD study, 240 mg, Post-Drug): 2.42 (1.53) µV
- Mean amplitude over the parietal cortex, Auditory Oddball, Standard trials (healthy participants [2]; SAD study, 240 mg, Pre-Drug): 1.34 (1.02) µV
- Mean amplitude over the parietal cortex, Auditory Oddball, Target trials (healthy participants [2]; SAD study, 240 mg, Pre-Drug): 2.94 (1.57) µV
- Mean amplitude over the parietal cortex, Auditory Oddball, Standard trials (healthy participants [2]; SAD study, 400 mg, Post-Drug): 0.48 (0.92) µV
- Mean amplitude over the parietal cortex, Auditory Oddball, Target trials (healthy participants [2]; SAD study, 400 mg, Post-Drug): 2.12 (0.34) µV
- Mean amplitude over the parietal cortex, Auditory Oddball, Standard trials (healthy participants [2]; SAD study, 400 mg, Pre-Drug): 0.66 (1.09) µV
- Mean amplitude over the parietal cortex, Auditory Oddball, Target trials (healthy participants [2]; SAD study, 400 mg, Pre-Drug): 1.7 (0.67) µV
- Mean amplitude over the parietal cortex, Auditory Oddball, Standard trials (healthy participants [2]; SAD study, 600 mg, Post-Drug): 1.84 (1.22) µV
- Mean amplitude over the parietal cortex, Auditory Oddball, Target trials (healthy participants [2]; SAD study, 600 mg, Post-Drug): 4.31 (2.13) µV
- Mean amplitude over the parietal cortex, Auditory Oddball, Standard trials (healthy participants [2]; SAD study, 600 mg, Pre-Drug): 0.74 (1.24) µV
- Mean amplitude over the parietal cortex, Auditory Oddball, Target trials (healthy participants [2]; SAD study, 600 mg, Pre-Drug): 3.08 (2.61) µV
- Mean amplitude over the parietal cortex, Auditory Oddball, Standard trials (healthy participants [2]; [3]): 1.17 (1.66) µV
- Mean amplitude over the parietal cortex, Auditory Oddball, Target trials (healthy participants [2]; [3]): 2.56 (2.38) µV
- Mean amplitude over the parietal cortex, Auditory Oddball, Standard trials (healthy participants [2]; [4]): 1.09 (1.78) µV
- Mean amplitude over the parietal cortex, Auditory Oddball, Target trials (healthy participants [2]; [4]): 2.11 (2.11) µV
- Mean amplitude over the parietal cortex, Auditory Oddball, Standard trials (healthy participants [2]; [5]): -0.07 (0.96) µV
- Mean amplitude over the parietal cortex, Auditory Oddball, Target trials (healthy participants [2]; [5]): 0.8 (1.11) µV
- Mean amplitude over the parietal cortex, Auditory Oddball, Standard trials (healthy participants [2]; [6]): 0.51 (1.65) µV
- Mean amplitude over the parietal cortex, Auditory Oddball, Target trials (healthy participants [2]; [6]): 2.32 (1.46) µV
